Measurements taken from patent US8097624B2, “Cycloalkyl derivatives of 3-hydroxy-4-pyridinones” (Apotex Inc., priority 2006, dated 2012).
“And” between values parts separate entries of the source, which are not always exact repeats. Equal values may be shown once.

What was measured:
[1] = pKa determination by potentiometric or spectrophotometric titration; format: physicochemical; conditions: titration in 0.1 M NaCl at 22° C.
Protocol: The pKa values of ligands were determined by potentiometric titration when a ligand concentration greater than 1×10^−2 M in water could be prepared. In a typical experiment, the sample solution (2.67×10^−2 M) was prepared by the following method: Apo6619 (92.6 mg) was weighed into a 25-ml beaker, followed by the addition of 0.1 M NaCl (15 ml). The mixture was sonicated for 10 minutes to give a clear colorless solution. Nitrogen gas was then allowed to bubble through the solution. 1.000 N Hydrochloric acid (624 μl, 1.5 equivalent) was added to the solution to give pH 1.88. The solution was allowed to equilibrate at 22° C. for 60 minutes.
The solution was then titrated against 1.000 N NaOH at 22° C. to reach pH 11.8. For each addition of base, the solution was allowed to equilibrate until a constant pH reading was reached. The volume of the base added and the pH reading were recorded for each measurement. 137 measurements were taken to finish the experiment.
The data set of pH vs. base volume was analyzed using Hyperquad 2000 (Version 2.1, Peter Gans, University of Leeds).
The pKa values of ligands can be determined by spectrophotometric titration when both the conjugated acid and base absorb in the UV-Visible region. In a typical experiment, the sample solution was prepared by the following method: Apo6617 (0.792 mg) was weighed into an 80-ml beaker, followed by the addition of 0.1 M NaCl (50 ml). The mixture was sonicated for 5 minutes to give a clear colorless solution. Nitrogen gas was allowed to bubble through the solution. 1.000 N NaOH (50 μl) was added to give pH 10.9. The solution was allowed to equilibrate at 22° C. for 1 hour. A sipper system was used for the circulation of the sample solution between the beaker and the flow cell.
The sample solution was titrated against standard hydrochloric acid solutions at 22° C. to reach pH 1.40. After each addition of acid the solution was allowed to equilibrate until a constant pH reading was reached. The pH and the UV-Vis spectrum were recorded for each measurement. The peak wavelengths of the deprotonated species (L^−), the neutral species (LH), and the protonated species (LH2^+) were 314 nm, 281 nm, and 249 nm, respectively. In the region of pH>6, after each addition of acid there was a slight decrease in the absorbance at 314 nm and a slight increase at 281 nm in each spectrum, whereas in the region of pH<5, after each addition of acid there was a slight decrease in the absorbance at 281 nm and a slight increase at 249 nm in each spectrum. The solution was titrated until there was no obvious change in the spectra after several subsequent additions of acid. 116 measurements were taken to finish the experiment.
The resulting data set was then analyzed using pHAB (Peter Gans, University of Leeds).

[2] = Distribution coefficient determination (D7.4), 1-octanol / MOPS buffer; format: physicochemical; conditions: 1-octanol / MOPS buffer pH 7.4
Protocol: MOPS buffer (50 mM, pH=7.4) and 1-octanol were used as the aqueous phase and the organic phase, respectively, for distribution coefficient determinations. The MOPS buffer and 1-octanol were pre-saturated with each other before use.
In a typical experiment, an organic stock solution of Apo6618 (1-cyclopropyl-3-hydroxy-6-methyl-4-oxo-1,4-dihydro-pyridine-2-carboxylic acid cyclopropylamide) was prepared by weighing out 0.50 mg of the compound into a 10-mL volumetric flask and bringing to volume with 1-octanol. The solution was then sonicated for 60 minutes so that the sample could dissolve completely. The concentration of the stock solution was calculated as C^0org=2.0×10^−4 M. The organic standard solution of Apo6618 with 2.0×10^−5 M was prepared in a 10-mL volumetric flask by 10 times dilution of the stock solution with 1-octanol. The sample solution was prepared in a 10-mL volumetric flask. The stock sample solution (3 ml) was pipetted into the flask followed by the addition of MOPS buffer (3 ml). The standard and sample solutions were then vortexed for 2 hours. After vortexing, the solutions were transferred to test tubes and centrifuged at 4000 rpm for 15 minutes. UV-Vis spectra were recorded for the standard solution and the organic (top) phase of the sample solution at 22° C. The distribution coefficient, D7.4, was calculated using the following equation: D7.4=[Aorg/(C^0orgεorg−Aorg)]×(Vaqu/Vorg)
Where εorg=the molar extinction coefficient of the peak wavelength (λmax) obtained from the UV-Vis spectrum of the organic standard solution; Aorg=absorbance of the organic phase in the sample solution at the same λmax; C^0org=the concentration of the stock solution; Vaqu=the volume of MOPS buffer in the sample solution; Vorg=the volume of the stock solution in the sample solution.

Iron Overloaded Rats = experiment: Second rat study: urinary and fecal iron excretion at 28, 113 and 450 μmoles/kg; format: in vivo; conditions: n=6/group, mean ± 1SD
Protocol: A second study was conducted to confirm the efficacy results of Apo6619 and Apo6617 observed in the above study and to further characterize the efficacy of these compounds at doses lower than 450 μmol/kg. The study was conducted in two separate groups of iron overloaded rats. The method of iron overloading, preparation of dosing solutions and assessment of efficacy in these rats was similar to that described in the above study.
The first group of rats (n=6) were treated with Apo6619 consecutively at doses of 28, 113 and 450 μmoles/kg. Similarly, the second group of rats (also n=6) was treated with Apo6617 at these same three doses. Similar to the previous study, both Apo6619 and Apo6617 produced an increase in urinary iron excretion at the 450 μmoles/kg dose (Apo6619: 11±3 at baseline to 335±76 1-day post-Apo6619, p=0.0001; Apo6617: 14±4 at baseline to 183±20 1-day post-Apo6617, p=0.0003). […] At 28 μmoles/kg, only Apo6617 produced an increase in iron excretion (p=0.01) above baseline. However, the magnitude of the increased excretion was small for both Apo6619 and Apo6617.

Row | SMILES | melting point | pKas (higher value, phenolic C3 OH) [1] | pKas (lower value, LH2+) [1] | D7.4 [2] | Iron excretion, Urine (1 day post-chelator) (Iron Overloaded Rats; 28 μmol/kg) [µg/day/kg] | Iron excretion, Feces (3 days) (Iron Overloaded Rats; 113 μmol/kg) [µg/day/kg] | Iron excretion, Urine (1 day post-chelator) (Iron Overloaded Rats; 113 μmol/kg) | Iron excretion, Feces (3 days) (Iron Overloaded Rats; 450 μmol/kg) [µg/day/kg] | Iron excretion, Urine (1 day post-chelator) (Iron Overloaded Rats; 450 μmol/kg)
1 | Cc1cc(=O)c(O)c(C(=O)NC2CC2)n1C [Apo6617, 3-Hydroxy-1,6-dimethyl-4-oxo-1,4-dihydro-pyridine-2-carboxylic Acid Cyclopropylamide] | 260 to 262 °C | 8.6 and 8.5 | 2.5 and 2.4 | 0.099 | 24 ± 6 | 2411 ± 335 | 28 ± 8 µg/day/kg | 3228 ± 437 | 183 ± 20 µg/day/kg
2 | CNC(=O)c1c(O)c(=O)cc(C)n1C1CC1 [Apo6619, 1-Cyclopropyl-3-hydroxy-6-methyl-4-oxo-1,4-dihydro-pyridine-2-carboxylic Acid Methylamide] | 258 to 260 °C (dec.) |  |  | 0.109 | 14 ± 4 | 3033 ± 1076 | 51 ± 15*τ μg/day/kg | 3831 ± 790 | 335±76 μg/day/kg and 335 ± 76*τ μg/day/kg
3 | Cc1c(O)c(=O)ccn1C [deferiprone, 1,2-dimethyl-3-hydroxy-4-pyridinone, reference compound] |  | 9.64 | 3.56 |  |  |  |  |  | 
